Our source for the EC50 values is patent US12723063B2, “GIPR-agonist compounds” (Eli Lilly and Company, priority 2019, dated 2026).

Common to all, as to assay: cAMP functional assay (HTRF) in HEK293 cells in presence of 0.1% casein
Assay type in all cases: cell-based

For test [1], the target named is T1, human glucose-dependent insulinotropic peptide receptor (GIPR) (Homo sapiens, UniProt P48546).
T1 construct: expressed in transfected cells; host or cells: HEK293
T1 sequence (P48546 22-466): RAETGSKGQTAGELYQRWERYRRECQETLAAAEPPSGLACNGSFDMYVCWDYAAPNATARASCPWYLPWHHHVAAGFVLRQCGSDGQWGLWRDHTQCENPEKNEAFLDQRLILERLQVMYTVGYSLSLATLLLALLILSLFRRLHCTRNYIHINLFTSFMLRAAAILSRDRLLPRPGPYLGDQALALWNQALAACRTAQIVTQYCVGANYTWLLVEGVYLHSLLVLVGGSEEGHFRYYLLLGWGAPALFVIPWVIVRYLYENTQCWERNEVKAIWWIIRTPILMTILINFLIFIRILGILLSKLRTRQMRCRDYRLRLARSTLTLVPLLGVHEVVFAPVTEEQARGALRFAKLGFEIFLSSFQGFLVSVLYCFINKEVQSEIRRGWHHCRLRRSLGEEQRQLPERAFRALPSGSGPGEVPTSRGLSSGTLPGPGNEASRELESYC
To be noted: HEK293 cells expressing human GIPR, geometric mean, read-out: hGIPR cAMP Rel EC50 nM (SEM, n).

In test [2] the target is T2, human glucagon receptor (GcgR) (Homo sapiens, UniProt P47871).
T2 construct: expressed in transfected cells; host or cells: HEK293
To be noted: HEK293 cells expressing human GcgR, geometric mean, read-out: hGcgR cAMP Rel EC50 nM (SEM, n).

The target of test [3] is T3, human GLP-1 receptor (GLP-1R) (Homo sapiens, UniProt P43220).
T3 construct: expressed in transfected cells; host or cells: HEK293
To be noted: HEK293 cells expressing human GLP-1R, geometric mean, read-out: hGLP1R cAMP Rel EC50 nM (SEM, n).

*1 amine or outer side, *2 acyl side, *3 side chain or, on linkers, in order; H or OH if unused. Where a SMILES comes first, the peptide text is derived from it. Side-chain parts run from the residue outwards. [ ]: non-standard residue; d: D form. The star is where a group is joined. C20 diacid = O=C(O)CCCCCCCCCCCCCCCCCCC(=O)*; αMePhe(2-F) = C[C@](N)(Cc1ccccc1F)C(=O)O; γGlu = O=C(O)[C@H](CCC(=O)[*:2])N[*:1]; αMeF = C[C@](N)(Cc1ccccc1)C(=O)O; 4Pal = N[C@@H](Cc1ccncc1)C(=O)O; AEEA = NCCOCCOCC(=O)O; Aib = CC(C)(N)C(=O)O A value given as a limit tells only on which side of the number the result lay.

T2 sequence (P47871 26-477): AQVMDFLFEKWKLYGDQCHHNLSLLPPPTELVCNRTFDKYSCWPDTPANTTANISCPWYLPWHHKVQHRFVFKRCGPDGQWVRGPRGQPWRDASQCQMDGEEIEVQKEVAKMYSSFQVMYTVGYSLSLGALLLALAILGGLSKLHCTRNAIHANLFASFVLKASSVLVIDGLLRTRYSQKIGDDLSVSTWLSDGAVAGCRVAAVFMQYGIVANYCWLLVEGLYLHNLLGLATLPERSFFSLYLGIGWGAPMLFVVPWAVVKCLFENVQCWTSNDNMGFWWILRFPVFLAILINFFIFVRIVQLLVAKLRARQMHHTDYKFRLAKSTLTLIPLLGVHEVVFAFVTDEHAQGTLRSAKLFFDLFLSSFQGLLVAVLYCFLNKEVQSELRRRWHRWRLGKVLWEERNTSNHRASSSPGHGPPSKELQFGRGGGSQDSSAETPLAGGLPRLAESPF
T3 sequence (P43220 24-463): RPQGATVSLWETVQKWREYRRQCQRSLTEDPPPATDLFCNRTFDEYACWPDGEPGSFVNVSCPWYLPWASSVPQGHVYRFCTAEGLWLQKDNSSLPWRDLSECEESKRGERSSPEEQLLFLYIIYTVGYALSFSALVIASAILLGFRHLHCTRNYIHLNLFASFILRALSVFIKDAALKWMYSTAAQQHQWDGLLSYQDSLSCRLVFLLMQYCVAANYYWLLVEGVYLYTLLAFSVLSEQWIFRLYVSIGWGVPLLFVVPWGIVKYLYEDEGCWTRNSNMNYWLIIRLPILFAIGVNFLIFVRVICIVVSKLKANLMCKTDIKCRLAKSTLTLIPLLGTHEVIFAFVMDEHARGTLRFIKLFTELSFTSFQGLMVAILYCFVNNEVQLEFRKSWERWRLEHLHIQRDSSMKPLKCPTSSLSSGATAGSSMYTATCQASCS

As for `CC[C@H](C)[C@H](NC(=O)[C@H](CO)NC(=O)[C@H](Cc1ccc(O)cc1)NC(=O)[C@H](CC(=O)O)NC(=O)[C@H](CO)NC(=O)[C@@H](NC(=O)[C@](C)(Cc1ccccc1)NC(=O)[C@@H](NC(=O)CNC(=O)[C@H](CCC(=O)O)NC(=O)C(C)(C)NC(=O)[C@@H](N)Cc1ccc(O)cc1)[C@@H](C)O)[C@@H](C)CC)C(=O)N[C@@H](C)C(=O)N[C@@H](CC(C)C)C(=O)N[C@@H](CC(=O)O)C(=O)N[C@@H](CCCCN)C(=O)N[C@@H](CCCCNC(=O)COCCOCCNC(=O)COCCOCCNC(=O)CC[C@H](NC(=O)CCCCCCCCCCCCCCCCCCC(=O)O)C(=O)O)C(=O)N[C@@H](Cc1c[nH]cn1)C(=O)N[C@@H](CCC(N)=O)C(=O)NC(C)(C)C(=O)N[C@@H](CC(=O)O)C(=O)N[C@@H](Cc1ccccc1)C(=O)N[C@H](C(=O)N[C@@H](CCC(=O)O)C(=O)N[C@@H](Cc1ccncc1)C(=O)N[C@@H](CC(C)C)C(=O)N[C@@H](CC(C)C)C(=O)N[C@@H](CCC(=O)O)C(=O)N[C@@H](CCC(N)=O)C(=O)NCC(=O)N1CCC[C@H]1C(=O)N[C@@H](CO)C(=O)N[C@@H](CO)C(=O)NCC(=O)N[C@@H](C)C(=O)N1CCC[C@H]1C(=O)N1CCC[C@H]1C(=O)N1CCC[C@H]1C(=O)N[C@@H](CO)C(N)=O)C(C)C` [Example 42] (H-Y[Aib]EGT[αMeF]ISDYSIALDKK([AEEA-AEEA-γGlu-C20 diacid])HQ[Aib]DFVE[4Pal]LLEQGPSSGAPPPS-NH2), the EC50 in test [1] is 0.0091 nM; in test [2] it was more than 5000 nM; in test [3], 815 nM.

In the case of `CC[C@H](C)[C@H](NC(=O)[C@H](CO)NC(=O)[C@H](Cc1ccc(O)cc1)NC(=O)[C@H](CC(=O)O)NC(=O)[C@H](CO)NC(=O)[C@@H](NC(=O)[C@](C)(Cc1ccccc1F)NC(=O)[C@@H](NC(=O)CNC(=O)[C@H](CCC(=O)O)NC(=O)[C@H](C)NC(=O)[C@@H](Cc1ccc(O)cc1)NC(C)=O)[C@@H](C)O)[C@@H](C)CC)C(=O)N[C@@H](C)C(=O)N[C@@H](CC(C)C)C(=O)N[C@@H](CC(=O)O)C(=O)N[C@@H](CCCCN)C(=O)N[C@@H](CCCCNC(=O)COCCOCCNC(=O)COCCOCCNC(=O)CC[C@H](NC(=O)CCCCCCCCCCCCCCCCCCC(=O)O)C(=O)O)C(=O)N[C@@H](Cc1c[nH]cn1)C(=O)N[C@@H](CCC(N)=O)C(=O)NC(C)(C)C(=O)N[C@@H](CCC(=O)O)C(=O)N[C@@H](Cc1ccccc1)C(=O)N[C@H](C(=O)N[C@@H](CC(N)=O)C(=O)N[C@@H](Cc1ccc(O)cc1)C(=O)N[C@@H](CC(C)C)C(=O)N[C@@H](CC(C)C)C(=O)N[C@@H](CCC(=O)O)C(=O)NCC(=O)NCC(=O)N1CCC[C@H]1C(=O)N[C@@H](CO)C(=O)N[C@@H](CO)C(=O)NCC(=O)N[C@@H](C)C(=O)N1CCC[C@H]1C(=O)N1CCC[C@H]1C(=O)N1CCC[C@H]1C(=O)N[C@@H](CO)C(N)=O)C(C)C` [Example 33] (Ac-[dY]AEGT[αMePhe(2-F)]ISDYSIALDKK([AEEA-AEEA-γGlu-C20 diacid])HQ[Aib]EFVNYLLEGGPSSGAPPPS-NH2), the concentration for a half-maximal effect (EC50) in test [1] is 0.0551 nM; in test [2], more than 5000 nM; in test [3] it was more than 5000 nM.
